From patent US20180116993A1, “MODULATORS OF FARNESOID X RECEPTOR AND METHODS FOR THE USE THEREOF” (XIAMEN UNIVERSITY, priority 2015, published 2018)
Marks after values point to notes of the source that are not given here.

Experiments:
[1] = system: mice with APAP-induced liver injury; experiment: Acetaminophen (APAP)-induced liver injury in mouse; format: in vivo; details: for Liver morphology by H&E staining (FIG. 1): 10 mg/kg (Tschimganine 20 mg/kg) i.p. five days, then APAP, compared to severe liver injury in control group; for Hepatic GSH (μM/g liver tissue) / ALT (U/L): then APAP 500 mg/kg; for Hepatic GSH (μM/g liver tissue): one-year age mice, vehicle 8.0 ± 2.8; for expression levels of GPX1 and UGT1α1 in liver: mRNA by RT-PCR; for expression levels of GPX1 and UGT1α1 in liver / activities of serum AST, ALT and LDH: vs vehicle control group, Table 5 (not given); for ALT (U/L): 5 mg/kg i.p. once daily for five days, 8-week age mice, serum, vehicle 786 ± 111
From the text: Methods: Acetaminophen (APAP)-induced liver injury in mouse is a commonly used model to study drugs protecting liver. Overdose of APAP causes liver injury by inducing the production of reactive oxygen species and reactive nitrogen species, and excessive consumption of reductive substances such as antioxidant glutathione (GSH), leading to the reduction of GSH in vivo, and the following upregulation of the activities of the aspartate aminotransferase (AST), the alanine aminotransferase (ALT) and the lactate dehydrogenase (LDH), which will result in liver inflammation and necrosis. In this example, the APAP-induced liver injury was used to detect the protection and repair functions of our compounds in liver injury.
One-year or 8-week age mice were maintained under environmentally controlled conditions with free access to standard chow diet and water. Animal experiments were conducted in the barrier facility of the Laboratory Animal Center, Xiamen University, approved by the Institutional Animal Use and Care Committee of Xiamen University, China.
Compounds were solved with DMSO and then prepared to work concentration with 40% HBC (2-hydroxypropyl-β-cyclodextrin) in which the final work concentrations of compounds are 5 mg/kg body weight, 10 mg/kg or 20 mg/kg in 100 μl injection volume and the concentration of DMSO is 10%. Compounds were intraperitoneal (i.p.) injected once daily for five days. For Feroline and Tschimganine, one-year age mice were used in the experiment. For other compounds, 8-week age mice were used. […] For Tschimganine, 20 mg/kg dose of compound was administered to mice. For other compounds, 5 mg/kg dose of compounds were administered to mice. Six hours after the fifth injection, 500 mg/kg body weight of APAP solved in PBS was i.p. injected to the mice. 24 hours later, mice were sacrificed. Part of each liver was fixed in 4% paraformaldehyde, and the liver histology characterization was analyzed by haematoxylin and eosin (H&E) staining with paraffin-embedded sections by standard procedures. Other liver tissues were collected for detecting the GSH levels, and the mRNA expression of genes involved in liver repairing, such as GPX1 and UGT1a1, by RT-PCR. The serums were collected to measure enzymes activities including AST, ALT and LDH. For the synthetic derivatives, ALT and GSH were selected as indicating markers for the function of these compounds.

[2] = system: collagen related genes in mice livers; experiment: Liver mRNA levels of collagen related genes in mice of Example 5 (RT-PCR); format: in vivo, mouse; details: 10 mg/kg; for Relative mRNA level of α-SMA: vehicle 1 ± 0.1; for Relative mRNA level of α2(I) collagen: vehicle 1.1 ± 0.1; for Relative mRNA level of α1(I) collagen: vehicle 1.1 ± 0.2
From the text: NAFLD with excessive fat accumulation in liver will affect the blood and oxygen supplies to liver and the metabolism of liver organ, resulting in amounts of cell swelling, inflammatory infiltration and necrosis in liver. […] The levels of various collagen contents are higher in patients with liver cirrhosis. Masson's staining is a three-color staining protocol used in histology. It is widely used to study hepatic pathologies (cirrhosis). It's an authoritative and classic method to detect the existence and extend of accumulation of the collagen fiber. Sirius Red staining is also presented as a method for collagen determination. In this example, the Masson's staining and […] were performed to detect the collagen deposit in high fat diet fed db/db mice in Example 5. The Masson's staining kit (Nanjing Jiancheng Engineering Institute, China) was used for the staining of liver sections in Example 5. The Sirius red staining is performed as standard procedure. RT-PCR was used detect the expression of collagen and related genes such as α1(I) collagen, α2(I)collagen, α-SMA and MCP-1 in mice livers.

[3] = system: db/db mice; experiment: Serum/blood metabolic parameters in high-fat diet fed db/db mice; format: in vivo, mouse
How it was run: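 db/db mice aged 8–10 weeks on high-fat diet received compounds i.p. once daily for 7, 10, 11 or 14 days, then were fasted 6 h and sacrificed. Serum glucose (glucose oxidase), insulin (ELISA), cholesterol, FFA and triglycerides measured by kits; some blood glucose by tail strips after the 6th injection and 16 h fast.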

[4] = system: SOD2; experiment: mRNA level of antioxidant gene SOD2 in livers of db/db mice; format: in vivo, mouse; details: 10 mg/kg, vehicle 1 ± 0.3
[5] = system: inflammatory cytokines in tissues of db/db mice; experiment: Inflammatory cytokine mRNA levels in tissues of high-fat diet fed db/db mice (RT-PCR); format: in vivo, mouse; details: 5 mg/kg; for mRNA level of iNOS (fold), Liver tissue: vehicle 1.06 ± 0.14; for mRNA level of iNOS (fold), Colon tissue: vehicle 1.12 ± 0.23
How it was run: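 Cytokine and marker transcripts (iNOS, IFNγ, TGFβ, TNFα, COX2, IL-1β, IL-6, SAA1, MIP-1α, CD36) quantified by RT-PCR in liver, kidney and white adipose tissue of high-fat diet fed db/db mice.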

[6] = 10 mg/kg, treat for 10 days, vehicle 527 ± 63

Structure (SMILES) | Liver morphology by H&E staining (FIG. 1) [1] | expression levels of GPX1 and UGT1α1 in liver [1] | activities of serum AST, ALT and LDH [1] | Relative mRNA level of α-SMA [2] | Relative mRNA level of α1(I) collagen [2] | mRNA level of SOD2 (fold) [4] | ALT (U/L) [1] | mRNA level of iNOS (fold), Liver tissue [5] | mRNA level of iNOS (fold), Colon tissue [5] | further results
C/C1=C\CCC(C)(O)/C=C/C(C(C)C)C(OC(=O)c2ccc(O)cc2)C1 (stereo not shown) [Feroline] | almost normal liver morphology | significantly upregulated | dramatically lower | 0.73 ± 0.06^a | 0.37 ± 0.1^a |  |  |  |  | Hepatic GSH (μM/g liver tissue) ([1]; 10 mg/kg i.p. once daily for five days): 14.2 ± 1.6^b μM/g liver tissue; Relative mRNA level of α2(I) collagen [2]: 0.6 ± 0.06^a
COc1cc(C(=O)O[C@H]2C[C@H]3CC[C@]2(C)C3(C)C)ccc1O [Tschimganine] | almost normal liver morphology | significantly upregulated | dramatically lower | 0.56 ± 0.12^a | 0.6 ± 0.12^a |  |  |  |  | Hepatic GSH (μM/g liver tissue) ([1]; 20 mg/kg i.p. once daily for five days): 14.9 ± 0.6^b μM/g liver tissue; Relative mRNA level of MCP-1 ([2]; vehicle 1.2 ± 0.2): 0.62 ± 0.13^a; Serum Insulin (ng/ml) ([3]; 10 mg/kg for 7 days, vehicle 12 ± 3): 4.7 ± 0.4^b ng/ml; Serum Glucose (mg/dl) ([3]; 10 mg/kg for 7 days, vehicle 521 ± 54): 342 ± 36^a mg/dl
CC1(C)[C@@H]2CC[C@@]1(C)[C@@H](OC(=O)c1ccc(O)cc1)C2 [Tschimgine] | almost normal liver morphology | significantly upregulated | dramatically lower | 0.47 ± 0.1^a | 0.6 ± 0.13^a |  |  |  |  | Relative mRNA level of α2(I) collagen [2]: 0.75 ± 0.9^a; Serum Triglyceride (mg/dl) ([3]; 10 mg/kg for 11 days, vehicle 96 ± 16): 38 ± 8^a mg/dl; Serum Cholesterol (mg/dl) ([3]; 10 mg/kg for 11 days, vehicle 121 ± 13): 96 ± 3^a mg/dl; Serum FFA (μM) ([3]; 10 mg/kg for 11 days, vehicle 371 ± 27): 302 ± 21^a μM; Blood Glucose (mg/dl) ([3]; 10 mg/kg, 11 days, tail blood after the 6th injection and 16 h fast, vehicle 452 ± 24): 252 ± 54^b mg/dl
Cc1cc(C(=O)OC2CC3CCC2(C)C3(C)C)ccc1N (stereo not shown) [XD-4, 1,7,7-trimethyl-bicyclo[2.2.1]-heptan-2-yl 4-amino-3-methylbenzoate] |  |  |  |  |  | 1.6 ± 0.1 ^b fold | 236 ± 65 ^a U/L | 0.41 ± 0.1^a fold | 0.53 ± 0.37^a fold | 
Nc1ccc(C(=O)OC2CCCCCCC2)cc1 [XD-16, cyclooctyl 4-aminobenzoate] |  |  |  |  |  | 1.5 ± 0.1 ^b fold | 127 ± 46 ^b U/L | 0.39 ± 0.18^a fold | 0.42 ± 0.22^a fold | Serum Glucose (mg/dl) [3, 6]: 404 ± 46^a mg/dl
Cc1cc(C(=O)OC2CCCCCCC2)ccc1O [XD-17, cyclooctyl 4-hydroxy-3-methylbenzoate] |  |  |  |  |  | 1.8 ± 0.3 ^a fold | 117 ± 39 ^c U/L |  |  | 
CC1(C)C2CCC1(C)C(OC(=O)C1CCC(O)CC1)C2 (stereo not shown) [XD-20, 1,7,7-trimethyl-bicyclo[2.2.1]-heptan-2-yl 4-hydroxy-cyclohexane-carboxylate] |  |  |  |  |  |  |  | 0.51 ± 0.2^a fold | 0.5 ± 0.18^a fold | Serum Glucose (mg/dl) [3, 6]: 396 ± 55^a mg/dl
